{"source": "paper PMC10210398", "about": "“Genomic, functional and structural analyses elucidate evolutionary innovation within the sea anemone 8 toxin family” (BMC Biology, 2023)", "key": {"hKV10.1": {"test_system": "hKV10.1", "test": "Whole-cell patch-clamp, hKV10.1 in transiently transfected CHO cells", "assay_type": "cell-based, human", "description": "CHO and human embryonic kidney (HEK 293) cells were grown in DMEM-high glucose supplemented with 10% FBS, 2 mM L-glutamine, 100 U/mL penicillin-g, and 100 μg/mL streptomycin (Invitrogen) at 37 °C in a 5% CO2 and 95% air humidified atmosphere. Cells were passaged twice per week following a 5-min incubation in PBS containing 0.2 g/L EDTA (Invitrogen, Carlsbad, CA).\nCHO cells (ATCC) were transiently transfected with plasmids encoding hKV1.1, hKV1.2, hKV10.1, hKCa3.1, hTRPA1, or hNaV1.7 using Lipofectamine 2000 (Invitrogen, Carlsbad, CA) following the manufacturer’s protocol, then cultured under standard conditions. The cells were co-transfected with a plasmid encoding green fluorescent protein (GFP) at a molar ratio of 10:1 except for hKV1.1, hKV1.2, and hKCa3.1 for which GFP-tagged ion channel vectors were used. Currents were recorded 24–36 h after transfection. […] HEK 293 cells stably expressing the hKv11.1 channel (hERG, hKCNH2 gene, a kind gift from H. Wulff, University of California, Davis, CA) and mKCa1.1 channel (BKCa, hKCNMA1, a kind gift from C. Beeton, Baylor College of Medicine, Houston, TX) were used. hTRPV1 channels were expressed in a stable manner in CHO cells. Transfected cells were washed twice with 2 mL of ECS (see below) and re-plated onto 35-mm polystyrene cell culture dishes (Cellstar, Greiner Bio-One). hKV1.3 currents were recorded from activated peripheral blood mononuclear cells (PBMCs, see below) 3–4 days after activation. Human veinous blood was obtained from anonymised healthy donors. […]\nConventional whole-cell patch-clamp electrophysiology was used to record ionic currents. […] Data were analysed using Prism 8 (GraphPad, CA, USA) and ClampFit 10.5 software (Molecular Devices Inc., Sunnyvale, CA). […] For hKCa3.1, hTRPA1 and hTRPV1, the reversal potential for K^+ was determined and only those currents were analysed for which the reversal potential fell into the range of the theoretical reversal potential ± 5 mV (− 86.5 ± 5 mV for KCa3.1, and 0 ± 5 mV for hTRPA1 and hTRPV1)."}, "Drosophila melanogaster": {"test_system": "Drosophila melanogaster", "test": "Injection activity assay in Drosophila melanogaster", "assay_type": "in vivo", "conditions": "for flies dead / flies paralysed: n = 8; for number of flies dead / number of flies paralysed: of 8 flies", "description": "The activity of the recombinant SA8 peptide in Drosophila melanogaster was assessed using an injection activity assay. The mass of female D. melanogaster used for this experiment ranged from 0.8 to 1.1 mg. Eight D. melanogaster were used as an injection control group and administered 50 nL of water. Five doses of SA8 (0.00005, 0.0005, 0.005, 0.05 and 0.5 µg per fly; 50 nL) were each administered to eight D. melanogaster (n total = 40), with observations of paralysis and mortality made at 2 and 24 h post-injection (Additional file 14: File S6). Dose–response data were analysed as described previously."}}, "note": "Entries after “also recorded” stand apart in the source; their conditions may differ. Bridge positions count the residues as written; N and C are the ends. Ends that are not written are not given here.", "data": [{"sequence": "GYGKGRPGCYNHYDESICGGVIKDEHCKAGRGSRMGKFALKNCQFQCGLC (disulfide 9-47, 18-50, 27-43) [SA8]", "values": [{"measurement": "RCF_mean (remaining current fraction, I/I0)", "setting": "hKV10.1; Kv10.1, 1000 nM SA8, mean, n = 4, SEM 0.00577385", "value": 0.9796}, {"measurement": "effect on current, in words", "setting": "hKV10.1; hKV10.1, CHO cells, 1 µM SA8", "value": "no effect; also recorded: did not inhibit"}, {"measurement": "flies dead", "setting": "Drosophila melanogaster; 5e-5 µg/fly, 2 h", "value": 0.0, "unit": "%"}, {"measurement": "flies paralysed", "setting": "Drosophila melanogaster; 5e-5 µg/fly, 2 h", "value": 0.0, "unit": "%"}, {"measurement": "number of flies dead", "setting": "Drosophila melanogaster; 5e-5 µg/fly, 2 h", "value": 0}, {"measurement": "number of flies paralysed", "setting": "Drosophila melanogaster; 5e-5 µg/fly, 2 h", "value": 0}, {"measurement": "flies dead", "setting": "Drosophila melanogaster; 5e-5 µg/fly, 24 h", "value": 0.0, "unit": "%"}, {"measurement": "flies paralysed", "setting": "Drosophila melanogaster; 5e-5 µg/fly, 24 h", "value": 0.0, "unit": "%"}, {"measurement": "number of flies dead", "setting": "Drosophila melanogaster; 5e-5 µg/fly, 24 h", "value": 0}, {"measurement": "number of flies paralysed", "setting": "Drosophila melanogaster; 5e-5 µg/fly, 24 h", "value": 0}, {"measurement": "flies dead", "setting": "Drosophila melanogaster; 0.0005 µg/fly, 2 h", "value": 0.0, "unit": "%"}, {"measurement": "flies paralysed", "setting": "Drosophila melanogaster; 0.0005 µg/fly, 2 h", "value": 0.0, "unit": "%"}, {"measurement": "number of flies dead", "setting": "Drosophila melanogaster; 0.0005 µg/fly, 2 h", "value": 0}, {"measurement": "number of flies paralysed", "setting": "Drosophila melanogaster; 0.0005 µg/fly, 2 h", "value": 0}, {"measurement": "flies dead", "setting": "Drosophila melanogaster; 0.0005 µg/fly, 24 h", "value": 0.0, "unit": "%"}, {"measurement": "flies paralysed", "setting": "Drosophila melanogaster; 0.0005 µg/fly, 24 h", "value": 0.0, "unit": "%"}, {"measurement": "number of flies dead", "setting": "Drosophila melanogaster; 0.0005 µg/fly, 24 h", "value": 0}, {"measurement": "number of flies paralysed", "setting": "Drosophila melanogaster; 0.0005 µg/fly, 24 h", "value": 0}, {"measurement": "flies dead", "setting": "Drosophila melanogaster; 0.005 µg/fly, 2 h", "value": 0.0, "unit": "%"}, {"measurement": "flies paralysed", "setting": "Drosophila melanogaster; 0.005 µg/fly, 2 h", "value": 0.0, "unit": "%"}, {"measurement": "number of flies dead", "setting": "Drosophila melanogaster; 0.005 µg/fly, 2 h", "value": 0}, {"measurement": "number of flies paralysed", "setting": "Drosophila melanogaster; 0.005 µg/fly, 2 h", "value": 0}, {"measurement": "flies dead", "setting": "Drosophila melanogaster; 0.005 µg/fly, 24 h", "value": 0.0, "unit": "%"}, {"measurement": "flies paralysed", "setting": "Drosophila melanogaster; 0.005 µg/fly, 24 h", "value": 0.0, "unit": "%"}, {"measurement": "number of flies dead", "setting": "Drosophila melanogaster; 0.005 µg/fly, 24 h", "value": 0}, {"measurement": "number of flies paralysed", "setting": "Drosophila melanogaster; 0.005 µg/fly, 24 h", "value": 0}, {"measurement": "flies dead", "setting": "Drosophila melanogaster; 0.05 µg/fly, 2 h", "value": 0.0, "unit": "%"}, {"measurement": "flies paralysed", "setting": "Drosophila melanogaster; 0.05 µg/fly, 2 h", "value": 0.0, "unit": "%"}, {"measurement": "number of flies dead", "setting": "Drosophila melanogaster; 0.05 µg/fly, 2 h", "value": 0}, {"measurement": "number of flies paralysed", "setting": "Drosophila melanogaster; 0.05 µg/fly, 2 h", "value": 0}, {"measurement": "flies dead", "setting": "Drosophila melanogaster; 0.05 µg/fly, 24 h", "value": 0.0, "unit": "%"}, {"measurement": "flies paralysed", "setting": "Drosophila melanogaster; 0.05 µg/fly, 24 h", "value": 0.0, "unit": "%"}, {"measurement": "number of flies dead", "setting": "Drosophila melanogaster; 0.05 µg/fly, 24 h", "value": 0}, {"measurement": "number of flies paralysed", "setting": "Drosophila melanogaster; 0.05 µg/fly, 24 h", "value": 0}, {"measurement": "paralysis or death within 24 h, in words", "setting": "Drosophila melanogaster; 0.5 µg per fly, injected", "value": "did not result in paralysis or death"}, {"measurement": "flies dead", "setting": "Drosophila melanogaster; 0.5 µg/fly, 2 h", "value": 0.0, "unit": "%"}, {"measurement": "flies paralysed", "setting": "Drosophila melanogaster; 0.5 µg/fly, 2 h", "value": 0.0, "unit": "%"}, {"measurement": "number of flies dead", "setting": "Drosophila melanogaster; 0.5 µg/fly, 2 h", "value": 0}, {"measurement": "number of flies paralysed", "setting": "Drosophila melanogaster; 0.5 µg/fly, 2 h", "value": 0}, {"measurement": "flies dead", "setting": "Drosophila melanogaster; 0.5 µg/fly, 24 h", "value": 0.0, "unit": "%"}, {"measurement": "flies paralysed", "setting": "Drosophila melanogaster; 0.5 µg/fly, 24 h", "value": 0.0, "unit": "%"}, {"measurement": "number of flies dead", "setting": "Drosophila melanogaster; 0.5 µg/fly, 24 h", "value": 0}, {"measurement": "number of flies paralysed", "setting": "Drosophila melanogaster; 0.5 µg/fly, 24 h", "value": 0}]}]}
